# Source: patent US8710064B2, “2-aryl-4-quinazolinones and their pharmaceutical compositions” (China Medical University, priority 2011, dated 2014)
# How the values were obtained:
# M21 = test: trypan blue exclusion assay, M21 cells; assay type: cell-based; details: Homo sapiens; M21 skin cancer; trypan blue exclusion assay; read-out: IC50 M21
# Experimental: M21 cell line (human malignant melanoma) was provided by Dr. Feng-Yao Tang (China Medical University, Taiwan). Cells were grown in monolayer culture in RPMI-1640 medium, Eagle's minimum essential medium or Dulbecco's modified Eagles medium (Invitrogen Corporation, Grand Island, N.Y., USA) containing 10% fetal bovine serum (FBS; HyClone, Logan, Utah, USA), 100 U/ml penicillin and 100 μg/ml streptomycin (Gibco BRL, Rockville, Md., USA).
# (§1) Cell viability was also determined by trypan-blue exclusion assay. Cells were seeded in 6-well plates (2×10^4/well) for trypan blue exclusion assay, and incubated for 24 hours at 37° C. Culture medium containing test compound or DMSO (0.006%) was added to each well, and cells were incubated at 37° C. At indicated time points (0, 24, 48, 72 and 96 hr), cells were suspended with 0.05% trypsin-EDTA, and stained with trypan-blue dye (0.4%) (Sigma). The cell viability was evaluated by the percentage of death relative to the total cell, and cell growth curve was determined by number of live cells relative to the total number of cells.
# (§2) The anti-proliferation effects of Compounds 17-31 on M21, CH27, H460, Hep3B and HSC-3 cells were evaluated by the trypan blue exclusion assay.
# CH27 = test: trypan blue exclusion assay, CH27 cells; assay type: cell-based; details: CH27 human lung squamous carcinoma
# Experimental: CH27 cells (Human lung squamous carcinoma) were grown in monolayer culture in Dulbecco's modified Eagle's medium (DMEM; Life Technologies, Rockville, Md., USA) containing 5% FBS (HyClone, Logan, Utah, USA), 100 U/ml penicillin, […] streptomycin (Gibco BRL, Rockville, Md., USA) and 2 mM glutamine (Merck, Darmstadt, Germany).
# as §1, §2
# H460 = test: trypan blue exclusion assay, H460 cells; assay type: cell-based; details: NCI-H460, H460 human non-small cell lung cancer
# Experimental: (§3) Hep3B (human hepatocellular carcinoma) and H460 (lung non-small carcinoma) cells were grown in monolayer culture in Dulbecco's modified Eagle's medium (DMEM) (Life Technologies, Rockville, Md., USA) containing 5% fetal bovine serum (HyClone, Logan, Utah, USA), 100 U/ml penicillin and 100 μg/ml streptomycin (Gibco BRL, Rockville, Md., USA) and 2 mM glutamine (Merck, Darmstadt, Germany).
# as §1, §2
# Hep3B = test: trypan blue exclusion assay, Hep3B cells; assay type: cell-based; details: Hep3B human hepatoma
# Experimental: as §3, §1, §2
# HSC-3 = test: trypan blue exclusion assay, HSC-3 cells; assay type: cell-based, human; details: for IC50: HSC-3 human squamous carcinoma, trypan blue exclusion assay
# Experimental: The HSC-3 (human oral squamous cell carcinoma) were cultured in 1:1 Dulbecco's Modified Eagle's Medium (DMEM) and Ham's Nutrient Mixture F-12, containing 10% FBS (HyClone, Logan, Utah, USA), 100 U/ml penicillin, 100 μg/ml streptomycin (Gibco BRL, Rockville, Md., USA) and 2 mM glutamine (Merck, Darmstadt, Germany).
# as §1, §2
# [1] = tested on: M21, CH27, H460, Hep3B and HSC-3 cells; test: trypan blue exclusion assay, cancer cell panel (summary); assay type: cell-based; details: summary of Table 2
# Experimental: as §1, §2
Structure (SMILES),IC50 (H460) [µM],IC50 (Hep3B) [µM],melting point [°C],IC50 (M21) [µM],IC50 (CH27) [µM],IC50 (HSC-3) [µM],activity on HSC-3 cells (HSC-3; summary of Table 2),cytotoxic effects toward cancer cells [1]
"COc1ccc2nc(-c3cccc4ccccc34)[nH]c(=O)c2c1 [Compound 17, 6-Methoxy-2-(naphthalen-1-yl) quinazolin-4-one]",0.079,1.87,–,6.09,0.089,> 10,inactive,exhibited cytotoxic effects
"CN(C)c1ccc2nc(-c3cccc4ccccc34)[nH]c(=O)c2c1 [Compound 20, 6-(N,N-Dimethylamino)-2-(naphthalen-1-yl) quinazolin-4-one]",0.506,8.63,–,3.77,0.447,0.202,–,exhibited cytotoxic effects
"O=c1[nH]c(-c2c[nH]c3ccccc23)nc2ccc(N3CCCC3)cc12 [Compound 24, 6-(Pyrrolidin-1-yl)-2-(1H-indol-3-yl)quinazolin-4-one]",8.81,7.39,–,7.63,8.7,1.89,–,exhibited cytotoxic effects
"O=c1[nH]c(-c2c[nH]c3ccccc23)nc2ccc(N3CCCCC3)cc12 [Compound 27, 6-(Piperidin-1-yl)-2-(1H-indol-3-yl)quinazolin-4-one]",6.86,5.65,–,8.99,> 10,> 10,–,exhibited cytotoxic effects
"O=c1[nH]c(-c2cccc3ccccc23)nc2ccc(N3CCOCC3)cc12 [Compound 29, 6-(Morpholino)-2-(naphthalen-1-yl)quinazolin-4-one]",0.432,1.06,–,2.33,0.597,0.614,–,exhibited cytotoxic effects

# Now from value to compound, other results behind:
IC50 (H460) [µM],IC50 (Hep3B) [µM],melting point [°C],Structure (SMILES),IC50 (M21) [µM],IC50 (CH27) [µM],IC50 (HSC-3) [µM],activity on HSC-3 cells (HSC-3; summary of Table 2),cytotoxic effects toward cancer cells [1]
> 10,> 10,311 to 312,"COc1ccc2nc(-c3c[nH]c4ccccc34)[nH]c(=O)c2c1 [Compound 18, 6-Methoxy-2-(1H-indol-3-yl) quinazolin-4-one]",> 10,> 10,> 10,–,–
> 10,> 10,289 to 290,"COc1ccc2nc(-c3csc4ccccc34)[nH]c(=O)c2c1 [Compound 19, 6-Methoxy-2-(benzo[b]thiophen-3-yl) quinazolin-4-one]",> 10,> 10,> 10,–,–
> 10,> 10,> 300,"CN(C)c1ccc2nc(-c3c[nH]c4ccccc34)[nH]c(=O)c2c1 [Compound 21, 6-(N,N-Dimethylamino)-2-(1H-indol-3-yl)quinazolin-4-one]",> 10,> 10,> 10,–,–
> 10,> 10,> 300,CN(C)c1ccc2nc(-c3csc4ccccc34)[nH]c(=O)c2c1 [Compound 22],> 10,> 10,> 10,–,–
> 10,> 10,> 300,O=c1[nH]c(-c2csc3ccccc23)nc2ccc(N3CCCCC3)cc12 [Compound 28],> 10,> 10,> 10,–,–
> 10,> 10,> 300,"O=c1[nH]c(-c2c[nH]c3ccccc23)nc2ccc(N3CCOCC3)cc12 [Compound 30, 6-(Morpholino)-2-(1H-indol-3-yl)quinazolin-4-one]",> 10,> 10,> 10,–,–
> 10,> 10,> 300,"O=c1[nH]c(-c2csc3ccccc23)nc2ccc(N3CCOCC3)cc12 [Compound 31, 6-(Morpholino)-2-(benzo[b]thiophen-3-yl) quinazolin-4-one]",> 10,> 10,> 10,–,–
